These results are taken from paper PMC2990104 (Advances in Pharmacological Sciences, 2010).

The structures appear in SMILES notation.

Common to all, as to format: cell-based
For experiment [1], the target named is T1, L-type calcium channel (LTCC) (Rattus norvegicus, UniProt P22002).
T1 construct: gene Cacna1c; native channel in A7r5 cells
The experiment can be described thus: whole-cell patch clamp of ICa,L in A7r5 cells (stimulation). The settings on record: read-out: % stimulation above basal at 10 nM.

For experiment [2], the target named is T1, L-type calcium channel (LTCC). The experiment can be described thus: whole-cell patch clamp of ICa,L in A7r5 cells. The settings on record: read-out: % of basal current at 1 μM.
The target is the same in experiment [3]. In words: whole-cell patch clamp of basal and BAY-stimulated ICa,L in A7r5 cells.

T1 sequence (P22002 whole entry): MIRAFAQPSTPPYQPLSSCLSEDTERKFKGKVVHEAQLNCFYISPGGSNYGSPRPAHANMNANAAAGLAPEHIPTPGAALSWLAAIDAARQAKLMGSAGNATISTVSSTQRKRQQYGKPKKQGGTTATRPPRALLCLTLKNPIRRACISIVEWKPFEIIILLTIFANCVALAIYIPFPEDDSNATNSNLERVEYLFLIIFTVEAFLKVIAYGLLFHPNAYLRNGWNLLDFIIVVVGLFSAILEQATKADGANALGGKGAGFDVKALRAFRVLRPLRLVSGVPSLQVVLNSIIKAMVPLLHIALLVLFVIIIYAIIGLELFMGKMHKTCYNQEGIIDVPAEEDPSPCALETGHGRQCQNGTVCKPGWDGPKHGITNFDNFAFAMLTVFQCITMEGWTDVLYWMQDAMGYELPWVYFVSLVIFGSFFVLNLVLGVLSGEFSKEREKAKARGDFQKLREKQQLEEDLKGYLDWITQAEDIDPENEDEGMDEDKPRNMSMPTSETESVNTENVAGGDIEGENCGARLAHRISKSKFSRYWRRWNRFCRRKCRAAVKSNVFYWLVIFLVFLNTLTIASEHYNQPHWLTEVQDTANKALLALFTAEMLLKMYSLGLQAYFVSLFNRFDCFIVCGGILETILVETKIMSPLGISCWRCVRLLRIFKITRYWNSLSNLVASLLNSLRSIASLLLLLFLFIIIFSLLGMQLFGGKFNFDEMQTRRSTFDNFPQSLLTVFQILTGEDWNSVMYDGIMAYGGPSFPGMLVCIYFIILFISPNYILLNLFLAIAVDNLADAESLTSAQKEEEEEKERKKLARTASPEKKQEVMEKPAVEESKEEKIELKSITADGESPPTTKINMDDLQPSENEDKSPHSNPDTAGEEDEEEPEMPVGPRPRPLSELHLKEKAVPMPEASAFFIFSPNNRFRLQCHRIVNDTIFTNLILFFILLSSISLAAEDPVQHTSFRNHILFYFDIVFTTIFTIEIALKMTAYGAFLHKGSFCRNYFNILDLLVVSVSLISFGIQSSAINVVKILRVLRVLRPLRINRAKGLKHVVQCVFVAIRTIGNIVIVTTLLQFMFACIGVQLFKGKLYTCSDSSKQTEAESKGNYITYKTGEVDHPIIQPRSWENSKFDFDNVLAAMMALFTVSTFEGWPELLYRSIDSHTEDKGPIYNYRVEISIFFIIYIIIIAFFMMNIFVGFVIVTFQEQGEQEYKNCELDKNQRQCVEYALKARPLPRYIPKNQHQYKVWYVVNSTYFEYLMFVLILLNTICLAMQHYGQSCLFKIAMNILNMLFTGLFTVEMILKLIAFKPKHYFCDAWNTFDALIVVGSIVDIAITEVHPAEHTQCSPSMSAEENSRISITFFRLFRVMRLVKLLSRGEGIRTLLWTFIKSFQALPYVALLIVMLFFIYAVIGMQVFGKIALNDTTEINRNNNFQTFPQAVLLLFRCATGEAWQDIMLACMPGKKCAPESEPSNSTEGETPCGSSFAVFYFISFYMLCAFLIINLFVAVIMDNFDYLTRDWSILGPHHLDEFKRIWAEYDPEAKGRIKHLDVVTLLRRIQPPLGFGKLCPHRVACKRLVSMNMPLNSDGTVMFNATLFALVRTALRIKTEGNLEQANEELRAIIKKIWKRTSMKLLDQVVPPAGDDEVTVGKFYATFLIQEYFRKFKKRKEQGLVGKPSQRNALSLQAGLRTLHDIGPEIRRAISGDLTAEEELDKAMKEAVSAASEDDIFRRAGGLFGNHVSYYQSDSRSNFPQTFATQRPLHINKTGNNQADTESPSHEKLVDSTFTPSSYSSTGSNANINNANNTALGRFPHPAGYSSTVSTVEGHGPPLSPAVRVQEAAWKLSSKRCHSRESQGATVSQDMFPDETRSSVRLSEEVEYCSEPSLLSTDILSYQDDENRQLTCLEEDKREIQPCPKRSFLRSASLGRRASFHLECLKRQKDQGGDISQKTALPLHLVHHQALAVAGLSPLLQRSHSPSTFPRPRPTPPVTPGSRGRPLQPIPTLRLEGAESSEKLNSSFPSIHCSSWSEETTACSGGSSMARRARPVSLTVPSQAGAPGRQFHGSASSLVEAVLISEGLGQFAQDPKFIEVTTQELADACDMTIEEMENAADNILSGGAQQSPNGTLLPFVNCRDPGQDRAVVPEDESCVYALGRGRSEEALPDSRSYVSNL

Regarding `COC(=O)C1=C(C)NC(C)=C([N+](=O)[O-])[C@H]1c1ccccc1C(F)(F)F` [BAY, (−)-Bay K8644], in experiment [1], the activation at 0.01 µM worked out at 74.8 ± 5.7%.

As to `COC(=O)C1=C(C)NC(C)=C(C(=O)OC)C1c1ccccc1[N+](=O)[O-]` [NIF, nifedipine], in experiment [2], the activity at 1 µM amounted to 20.6 ± 2.2%.

As for `CC(C)CCC[C@@H](C)[C@H]1CC[C@H]2[C@@H]3CC=C4C[C@@H](O)CC[C@]4(C)[C@H]3CC[C@]12C` [cholesterol], the inhibition at 100 µM in experiment [3] came to 73.9 ± 16.8%.
